Assay results taken from US7829728B2, “Diarymethyl and related compounds” (Theravance, Inc., priority 2003, dated 2010).

System: guinea pigs, pilocarpine-evoked salivation
Experiment: Inhalation guinea pig salivation assay (Assay Test Procedure H)
Type: in vivo
Settings: ratio of anti-sialagogue ID50 to bronchoprotective ID50, guinea pig
Procedure: Guinea pigs (Charles River, Wilmington, Mass.) weighing 200-350 g are acclimated to the in-house guinea pig colony for at least 3 days following arrival. Test compound or vehicle are dosed via inhalation (IH) over a 10 minute time period in a pie shaped dosing chamber (R+S Molds, San Carlos, Calif.). Test solutions are dissolved in sterile water and delivered using a nebulizer filled with 5.0 mL of dosing solution. Guinea pigs are restrained in the inhalation chamber for 30 minutes. During this time, guinea pigs are restricted to an area of approximately 110 sq. cm. This space is adequate for the animals to turn freely, reposition themselves, and allow for grooming. […] Upon completion of nebulization, guinea pigs are evaluated at 1.5, 6, 12, 24, 48, or 72 hrs after treatment.
Guinea pigs are anesthetized one hour before testing with an intramuscular (IM) injection of a mixture of ketamine 43.75 mg/kg, xylazine 3.5 mg/kg, and acepromazine 1.05 mg/kg at an 0.88 mL/kg volume. […] Saliva is collected for 10 minutes, at which point the gauze pad is weighed and the difference in weight recorded to determine the amount of accumulated saliva (in mg). The mean amount of saliva collected for animals receiving the vehicle and each dose of test compound is calculated. […] Results are calculated using result means (n=3 or greater). […]

**Q.** `NC(=O)C(c1ccccc1)(c1ccccc1)[C@@H]1CCN(CCC(=O)NCCCCCNC[C@H](O)c2ccc(O)c3[nH]c(=O)ccc23)C1` [Example 3, 3-[(S)-3-(Carbamoyldiphenylmethyl)pyrrolidin-1-yl]-N-{5-[(R)-2-hydroxy-2-(8-hydroxy-2-oxo-1,2-dihydroquinolin-5-yl)ethylamino]pentyl}propionamide] was tested. Which apparent lung-selectivity index did it give?
**A.** The apparent lung-selectivity index was “greater than 5”.
